Bridge positions count the residues as written; N and C are the ends. Peptide text beside a SMILES is read from it.
Experiments:
Homo sapiens [1] = species: Homo sapiens; assay: Tested for induction of interleukin-1 production from human peripheral blood mononuclear cell (PBMC) of 2x10 e6 cells at 1 ug/mL; format: functional
Homo sapiens [2] = species: Homo sapiens; assay: Tested for induction of interleukin-1 production from human monocyte of 1x 10 e5 cells at 10 ug/mL; format: functional
HEp-2 [3] = assay: Tested for cytotoxicity index against HEP-2 cell line by MTT method at 1.0 ug/mL concentration; format: functional, Homo sapiens
HeLa [4] = assay: Tested for cytotoxicity index against HeLa cell line by MTT method at 1.0 ug/mL concentration; format: functional, Homo sapiens
HeLa [5] = assay: Tested for cytotoxicity index against HeLa cell line by MTT method at 0.1 ug/mL concentration; format: functional, Homo sapiens
HEp-2 [6] = assay: Tested for cytotoxicity index against HEP-2 cell line by MTT method at 0.1 ug/mL concentration; format: functional, Homo sapiens
Homo sapiens [7] = species: Homo sapiens; assay: Tested for induction of interleukin-1 from human peripheral blood mononuclear cell (PBMC) of 2x10 e6 cells at 1 ug/mL; format: functional

CC(C)C[C@@H]1NC(=O)[C@H](CCC(N)=O)NC(=O)[C@@H](N)CC(=O)NCCCC[C@@H](C(=O)NCC(=O)O)NC(=O)[C@H](CO)NC1=O (H-DQLSKG-OH; lactam 1-5)
IL-1 production (Homo sapiens [1]): 579 pg/mL | IL-1 production (Homo sapiens [2]): 1047 pg/mL

COc1cccc2c1C(=O)c1c(O)c3c(c(O)c1C2=O)C[C@@](O)(C(=O)CO)C[C@@H]3O[C@H]1C[C@H](N)[C@H](O)[C@H](C)O1 [DOXORUBICIN]
Cytotoxicity index (HEp-2 [3]): 75.5 | Cytotoxicity index (HeLa [4]): 96.6 | Cytotoxicity index (HeLa [5]): 50.6 | Cytotoxicity index (HEp-2 [6]): 39

H-KGDRLS-OH [TNF-ALPHA]
IL-1 production (Homo sapiens [7]): 741 pg/mL

Source: ChEMBL document CHEMBL1126577, “Studies of the synthesis, immunology, and cytotoxicity of a cyclic octapeptide corresponding to TNF-alpha-(59-66)” (1993)
